Values after ≈ are worked out from the molar mass of the structure shown. Where two headings read alike, the source gives them in different places.
Assays:
[1] = system: Listeria ivanovii (ATCC 19119); assay: MIC and MBC, broth microdilution; assay type: cell-based; conditions: L. ivanovii; for MIC: 37 °C, 24 h
Experimental: (§1) The antimicrobial activity was measured by the method described by Xue. All standard strains were obtained from the Guangdong Microbiology Culture Center (Guangzhou, China). Listeria ivanovii (ATCC 19119) was cultured in BHI, Salmonella enteritidis enteritidis (ATCC 14028) Staphylococcus aureus (ATCC 25923) and Escherichia coli (ATCC 25922) were cultured in nutrient agar (NA) for 24 h and at 37 °C. candida albicans (ATCC 10231) was cultured in PHB at 37 °C for 24 h. Propionibacterium acnes (ATCC 6919) and Fusobacterium nucleatum (ATCC 10953) were cultured in CDC agar at 37 °C for 48 h in a YQX-II anaerobic incubator (Shanghai, China). The final cell counts in l mL of broth were approximately 10^6 colony-forming units (CFU/mL). A 10 mg/mL solution of miconazole nitrate and hydrochloride tetracycline in water was used as a positive control against fungi and bacteria, respectly.
(§2) The MIC and MBC or MFC values were determined as described previously by Xue. Briefly, 100 μL dilutions (approximately 100,000 CFU/mL) of Staphylococcus aureus, Escherichia coli, Salmonella enteritidis enteritidis, Fusobacterium nucleatum, and Candida albicans in nutrient broth and Listeria ivanovii and Propionibacterium acnes in GMA broth were inoculated into microtiter plates. Then, 100 μL aliquots of the solutions of the test compound were added after a two-fold serial dilution with nutrient broth (from 2 mg/mL to 3 μg/mL). Broths with 5% (v/v) DMSO were used as controls. The petri dishes were incubated at 37 °C for 24 h with the exception of Propionibacterium acnes and Fusobacterium nucleatum, which were incubated at 37 °C for 48 h. The MIC was recorded as the lowest concentration of sample showing no detectable growth. To determine the MBC or MFC values for no bacterial or fungus growth, 10 μL of sub-inhibitory concentrations of the test compounds were incubated on CDC or GMA agar plates for 24 or 48 h. Every determination was carried out in triplicate.

[2] = system: Fusobacterium nucleatum (ATCC 10953); assay: MIC and MBC, broth microdilution; assay type: cell-based; conditions: F. nucleatum; for MIC: anaerobic, 37 °C, 48 h
Experimental: as §1, §2

[3] = system: Escherichia coli (ATCC 25922); assay: MIC and MBC, broth microdilution; assay type: cell-based; conditions: E. coli; for MIC: 37 °C, 24 h
Experimental: as §1, §2

[4] = system: Staphylococcus aureus (ATCC 25923); assay: MIC and MBC, broth microdilution; assay type: cell-based; conditions: S. aureus; for MIC: 37 °C, 24 h
Experimental: as §1, §2

[5] = system: Salmonella enteritidis enteritidis (ATCC 14028); assay: MIC and MBC, broth microdilution; assay type: cell-based; conditions: S. enteritidis enteritidis; for MIC: 37 °C, 24 h
Experimental: as §1, §2

[6] = system: Propionibacterium acnes (ATCC 6919); assay: MIC and MBC, broth microdilution; assay type: cell-based; conditions: P. acnes; for MIC: anaerobic, 37 °C, 48 h
Experimental: as §1, §2

[7] = DPPH radical scavenging activity; conditions: 30 min in the dark, 517 nm; positive control = ascorbic acid
Experimental: The antioxidant activity of RFCS and the standards were evaluated by DPPH radical scavenging activity using a slightly modified version of a previously reported method. […] Aliquots (100 μL) of the supernatants were transferred into a 96-well microplate, and the absorbance of each was recorded at 517 nm using a Spectramax Plus384 UV-Vis spectrophotometer (Molecular Devices, Sunnyvale, California, USA). […] The IC50 values, which represent the concentrations of rose samples and standard substance at which 50% of the DPPH radical was inhibited, were determined. The tests were performed in triplicate, and the percentage of DPPH scavenging was calculated using the following equation. Inhibition%=H0-H/H0×100 H:Absorbance of RFCS and the standards;H0:Absorbance of the blank

[8] = system: candida albicans (ATCC 10231); assay: MIC and MFC, broth microdilution; assay type: cell-based; conditions: C. albicans; for MIC: 37 °C, 24 h
Experimental: as §1, §2

ABTS radical scavenging = conditions: 30 °C, 30 min; positive control = Trolox
Experimental: The ABTS assay of RFCS was performed according to a modified version of a previously reported method. Briefly, the stock solutions were generated by mixing equal quantities of 7.4 mM ABTS^●+ solution and 2.6 mM potassium persulfate solution, and the mixture was incubated at room temperature for 12 h in the dark. Then, the solution was equilibrated with 1 mL of ABTS^●+ solution with 50% ethanol serving as a positive control. The absorbance of the solution at 734 nm was 1.17 ± 0.02 units. […] The mixture was mixed vigorously and incubated at 30 °C for 30 min. The absorbance was then measured at […] using the spectrophotometer. […] Inhibition%=Absorbance of blank-Absorbance of sample/Absorbance of blank×100

mushroom tyrosinase = assay: Tyrosinase inhibitory activity (spectrophotometric, DOPA substrate); assay type: biochemical; conditions: pH 6.8, 37 °C, 15 min, positive control = kojic acid
Experimental: The reaction mixture was vortexed and maintained at 37 °C for 15 min, and then the absorption maximum of dopachrome (set at 479 nm) was measured using a microplate reader (Molecular Devices, Sunnyvale, California, USA). The tests were performed in triplicate, and the value of tyrosinase inhibition activity was calculated as described above.

[9] = Listeria ivanovii, ATCC19119, read-out: MIC
[10] = Listeria ivanovii, ATCC19119, read-out: MBC
[11] = Fusobacterium nucleatum, ATCC10953, read-out: MIC
[12] = Fusobacterium nucleatum, ATCC10953, read-out: MBC
[13] = Escherichia coli, ATCC25922, read-out: MIC
[14] = Escherichia coli, ATCC25922, read-out: MBC
[15] = Staphylococcus aureus, ATCC25923, read-out: MIC
[16] = Staphylococcus aureus, ATCC25923, read-out: MBC
[17] = Salmonella enterica, read-out: MIC
[18] = Salmonella enterica, read-out: MBC
[19] = Cutibacterium acnes, ATCC6919, read-out: MIC
[20] = Cutibacterium acnes, ATCC6919, read-out: MBC
[21] = Candida albicans, ATCC10231, read-out: MIC
[22] = Candida albicans, ATCC10231, read-out: MFC

DPPH radical scavenging activity IC50 [7] | ABTS radical scavenging activity IC50 (ABTS radical scavenging) | Tyrosinase inhibition IC50 (mushroom tyrosinase) | MIC [1, 9] [µg/mL] | MIC [2, 11] [µg/mL] | MIC [3, 13] [µg/mL] | MIC [4, 15] [µg/mL] | MIC [5, 17] [µg/mL] | MIC [6, 19] [µg/mL] | MIC [8, 21] [µg/mL] | Molecule | MBC [1, 10] [µg/mL] | MBC [2, 12] [µg/mL] | MBC [3, 14] [µg/mL] | MBC [4, 16] [µg/mL] | MBC [5, 18] [µg/mL] | MBC [6, 20] [µg/mL] | MFC [8, 22] [µg/mL] | also measured
> 10000a μg/mL | > 10,000 a μg/mL | 825 ± 31 a μg/mL | 250 (≈ 1600 µM) | 250 (≈ 1600 µM) | 250 (≈ 1600 µM) | 125 (≈ 800 µM) | 250 (≈ 1600 µM) | 125 (≈ 800 µM) | 250 (≈ 1600 µM) | CC(C)=CCCC(C)CCO (stereo not shown) [Citronellol] | 500 (≈ 3200 µM) | 1000 (≈ 6400 µM) | 500 (≈ 3200 µM) | 500 (≈ 3200 µM) | 1000 (≈ 6400 µM) | 500 (≈ 3200 µM) | 500 (≈ 3200 µM) | 
0.695 ± 0.021 c μg/mL | 0.526 ± 0.014 c μg/mL | 0.762 ± 0.018 µg/mL | 250 (≈ 538 µM) | 250 (≈ 538 µM) | 250 (≈ 538 µM) | 250 (≈ 538 µM) | 250 (≈ 538 µM) | 250 (≈ 538 µM) | 250 (≈ 538 µM) | O=c1c(O[C@@H]2O[C@H](CO)[C@H](O)[C@H](O)[C@H]2O)c(-c2ccc(O)c(O)c2)oc2cc(O)cc(O)c12 [Hyperoside] | 500 (≈ 1080 µM) | 500 (≈ 1080 µM) | 1000 (≈ 2150 µM) | 1000 (≈ 2150 µM) | 500 (≈ 1080 µM) | 1000 (≈ 2150 µM) | 1000 (≈ 2150 µM) | Tyrosinase inhibition IC50 (mushroom tyrosinase; listed as hyperoside): < 1 µg/mL
0.507 ± 0.015 c μg/mL | 0.436 ± 0.026 c μg/mL | 0.613 ± 0.016 µg/mL | 500 (≈ 1750 µM) | 125 (≈ 437 µM) |  | 500 (≈ 1750 µM) |  |  |  | O=c1cc(-c2ccc(O)c(O)c2)oc2cc(O)cc(O)c12 [Luteolin] | 1000 (≈ 3490 µM) | 500 (≈ 1750 µM) | 1000 (≈ 3490 µM) | > 1000 |  | 500 (≈ 1750 µM) | 500 (≈ 1750 µM) | 
> 10,000 a μg/mL | > 10,000 a μg/mL | 730 ± 44 a μg/mL | 500 (≈ 3240 µM) | 250 (≈ 1620 µM) | 250 (≈ 1620 µM) | 250 (≈ 1620 µM) | 500 (≈ 3240 µM) | 250 (≈ 1620 µM) | 250 (≈ 1620 µM) | C=CC(C)(O)CCC=C(C)C (stereo not shown) [Linalool] | > 1000 | 1000 (≈ 6480 µM) | 1000 (≈ 6480 µM) | 1000 (≈ 6480 µM) | > 1000 | 1000 (≈ 6480 µM) | 1000 (≈ 6480 µM) | 

Molecule | DPPH radical scavenging activity IC50 [7] | ABTS radical scavenging activity IC50 (ABTS radical scavenging) | Tyrosinase inhibition IC50 (mushroom tyrosinase) | MIC [1, 9] [µg/mL] | MIC [2, 11] [µg/mL] | MIC [3, 13] [µg/mL] | MIC [4, 15] [µg/mL] | MIC [5, 17] [µg/mL] | MIC [6, 19] [µg/mL] | MIC [8, 21] [µg/mL] | MBC [1, 10] [µg/mL] | MBC [2, 12] [µg/mL] | MBC [3, 14] [µg/mL] | MBC [4, 16] [µg/mL] | MBC [5, 18] [µg/mL] | MBC [6, 20] [µg/mL] | MFC [8, 22] [µg/mL] | also measured
Kaempferol-3-O-Rutinoside | 0.808 ± 0.024 c μg/mL | 0.719 ± 0.016 c μg/mL | 0.908 ± 0.021 µg/mL |  |  |  |  |  |  |  |  |  |  |  |  |  |  | MBC [1]: 1000 µg/mL; MIC [1]: 500 µg/mL; MBC [2]: > 1000 µg/mL; MIC [2]: 500 µg/mL; MBC [3]: > 1000 µg/mL; MIC [3]: 500 µg/mL; MBC [4]: 1000 µg/mL; MIC [4]: 250 µg/mL; MBC [5]: > 1000 µg/mL; MIC [5]: 500 µg/mL; MBC [6]: 1000 µg/mL; MIC [6]: 500 µg/mL; MFC [8]: 1000 µg/mL; MIC [8]: 250 µg/mL; Tyrosinase inhibition IC50 (mushroom tyrosinase; listed as kaempferol-3-O-rutinosid): < 1 µg/mL
